Where only a bound is given, the exact number is not on record here.

The target in test [1] is T1, DDR1 (Homo sapiens, UniProt Q08345). Kind of test: DDR1 binding assay (LanthaScreen Europium Kinase Binding assay). More on the design: purchased Carna Biosciences. The note with it: binding assay, 5 nM DDR1, 20 nM Kinase Tracer 178; Ki from IC50 by Cheng-Prusoff; read-out: Ki DDR1. Put shortly: (§1)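 TR-FRET tracer-displacement format: 665/615 nm emission ratio (340 nm excitation) gave IC50 by 4-parameter fit, then Ki via Cheng-Prusoff. Each kinase at 5 nM with 2 nM Eu-anti-GST antibody and Tracer 178 (DDR1 20 nM, DDR2 10 nM), 1 h, room temperature, HEPES pH 7.5 buffer.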
T1 sequence (Q08345 19-913): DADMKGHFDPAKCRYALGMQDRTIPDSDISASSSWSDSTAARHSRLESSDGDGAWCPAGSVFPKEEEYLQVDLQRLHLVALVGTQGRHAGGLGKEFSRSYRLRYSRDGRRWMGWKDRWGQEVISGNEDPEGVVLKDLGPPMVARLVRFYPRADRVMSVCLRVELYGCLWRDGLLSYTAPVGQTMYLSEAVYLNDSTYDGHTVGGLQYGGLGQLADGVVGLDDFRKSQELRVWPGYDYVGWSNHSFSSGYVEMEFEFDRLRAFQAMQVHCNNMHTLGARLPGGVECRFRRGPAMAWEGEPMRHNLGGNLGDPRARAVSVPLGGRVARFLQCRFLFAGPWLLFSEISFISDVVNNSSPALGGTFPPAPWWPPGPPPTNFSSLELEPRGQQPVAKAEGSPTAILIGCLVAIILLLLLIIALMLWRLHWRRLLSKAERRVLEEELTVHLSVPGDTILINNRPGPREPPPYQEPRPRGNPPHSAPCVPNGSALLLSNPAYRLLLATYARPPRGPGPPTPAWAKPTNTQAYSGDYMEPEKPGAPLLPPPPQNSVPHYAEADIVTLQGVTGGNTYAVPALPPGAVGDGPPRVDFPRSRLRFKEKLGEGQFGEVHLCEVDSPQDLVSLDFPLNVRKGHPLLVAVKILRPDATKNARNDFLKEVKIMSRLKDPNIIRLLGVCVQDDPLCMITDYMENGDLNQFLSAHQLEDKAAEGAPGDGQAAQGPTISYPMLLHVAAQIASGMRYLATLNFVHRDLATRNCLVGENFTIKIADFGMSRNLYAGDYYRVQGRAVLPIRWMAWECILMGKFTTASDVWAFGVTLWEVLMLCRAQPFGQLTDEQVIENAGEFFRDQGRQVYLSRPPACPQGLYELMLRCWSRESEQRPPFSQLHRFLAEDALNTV
On the technique in general: In TR-FRET formats the signal depends on donor and acceptor labels being close together.

A further test concerns the target T2, DDR2 (Homo sapiens, UniProt Q16832).
T2 sequence (Q16832 22-855): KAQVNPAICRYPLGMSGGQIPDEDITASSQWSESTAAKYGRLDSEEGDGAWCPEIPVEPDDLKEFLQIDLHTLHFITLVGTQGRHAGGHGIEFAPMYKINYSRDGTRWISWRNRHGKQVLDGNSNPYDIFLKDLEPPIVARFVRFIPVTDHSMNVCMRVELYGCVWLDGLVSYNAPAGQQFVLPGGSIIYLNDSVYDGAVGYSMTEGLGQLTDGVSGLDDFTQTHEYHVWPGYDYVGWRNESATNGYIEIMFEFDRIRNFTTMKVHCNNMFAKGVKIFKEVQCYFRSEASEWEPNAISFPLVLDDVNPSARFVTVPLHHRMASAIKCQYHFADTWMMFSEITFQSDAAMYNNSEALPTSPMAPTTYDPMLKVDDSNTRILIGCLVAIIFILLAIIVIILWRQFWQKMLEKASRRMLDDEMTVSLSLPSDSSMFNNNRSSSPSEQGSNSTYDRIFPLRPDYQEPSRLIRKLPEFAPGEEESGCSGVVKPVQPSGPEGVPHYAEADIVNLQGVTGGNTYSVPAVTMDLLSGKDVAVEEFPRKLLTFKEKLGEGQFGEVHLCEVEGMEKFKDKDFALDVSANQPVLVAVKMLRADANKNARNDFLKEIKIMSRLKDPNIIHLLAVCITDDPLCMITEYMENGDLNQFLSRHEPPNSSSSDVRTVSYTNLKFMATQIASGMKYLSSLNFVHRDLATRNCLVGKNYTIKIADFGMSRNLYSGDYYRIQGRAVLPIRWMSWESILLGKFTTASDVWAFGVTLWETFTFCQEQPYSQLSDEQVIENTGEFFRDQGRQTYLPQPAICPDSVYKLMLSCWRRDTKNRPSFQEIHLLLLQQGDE
Kind of test: DDR2 binding assay (LanthaScreen Europium Kinase Binding assay). More on the design: purchased Life Technologies. The note with it: binding assay, 5 nM DDR2, 10 nM Kinase Tracer 178; Ki from IC50 by Cheng-Prusoff; read-out: Ki DDR2. Put shortly:
as §1

For test [2], the target named is T1, DDR1. Kind of test: DDR1 cell based assay (PathHunter U2OS DDR1 assay). More on the design: host or cells: U2OS-DDR1 (PathHunter). The note with it: U2OS-DDR1 cells, bovine Type II Collagen 20 μg/ml. Put shortly:
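Receptor activation measured by enzyme-fragment complementation luminescence in engineered U2OS cells. Compound added 30 min before overnight challenge with 20 μg/ml bovine collagen II; data scaled between vehicle and collagen-stimulated controls, IC50 derived by four-parameter variable-slope fitting.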

For `CC(C)(C)c1cc(NC(=O)c2csc3c2CCN(C(=O)c2cnc4n2CCOC4)C3)on1` [Example 112, N-(3-(tert-butyl)isoxazol-5-yl)-6-(5,6-dihydro-8H-imidazo[2,1-c][1,4]oxazine-3-carbonyl)-4,5,6,7-tetrahydrothieno[2,3-c]pyridine-3-carboxamide], the Ki at DDR1 [1] and on DDR2 was less than 25 nM throughout. In addition, the IC50 on DDR1 [2] was in the range of 25 to 50 nM.

`O=C(Nc1cc(CN2CCOCC2)cc(C(F)(F)F)c1)c1csc2c1CCN(C(=O)c1cnn3ccncc13)C2` [Example 172, N-(3-(morpholinomethyl)-5-(trifluoromethyl)phenyl)-6-(pyrazolo[1,5-a]pyrazine-3-carbonyl)-4,5,6,7-tetrahydrothieno[2,3-c]pyridine-3-carboxamide]: the inhibition constant Ki on DDR1 [1] and at DDR2 was less than 25 nM each time. Besides, at DDR1 [2], the concentration for half-maximal inhibition (IC50) was 25 to 50 nM.

`CN(C)C1CCN(Cc2cc(NC(=O)c3csc4c3CCN(C(=O)c3cnc5ccccn35)C4)cc(C(F)(F)F)c2)CC1` [Example 48, N-(3-((4-(dimethylamino)piperidin-1-yl)methyl)-5-(trifluoromethyl)phenyl)-6-(imidazo[1,2-a]pyridine-3-carbonyl)-4,5,6,7-tetrahydrothieno[2,3-c]pyridine-3-carboxamide]: the Ki on DDR1 [1] is less than 25 nM; at DDR2, 25 to 50 nM. The compound further registered an IC50 against DDR1 [2] of 50 to 80 nM.

Turning to `Cc1ccc(-n2nc(C(C)(C)C)cc2NC(=O)c2csc3c2CCN(C(=O)c2cnc4ccccn24)C3)cc1` [Example 2, N-(3-(tert-butyl)-1-(p-tolyl)-1H-pyrazol-5-yl)-6-(imidazo[1,2-a]pyridine-3-carbonyl)-4,5,6,7-tetrahydrothieno[2,3-c]pyridine-3-carboxamide], the Ki on DDR1 [1] and at DDR2 was less than 25 nM throughout. Also, on DDR1 [2], the concentration for half-maximal inhibition (IC50) lay within 25 to 50 nM.

`CN(C)[C@@H]1CCN(Cc2cc(NC(=O)c3csc4c3CCN(Cc3cnc5[nH]ccc5c3)C4)cc(C(F)(F)F)c2)C1` [Example 159, (R)-6-((1H-pyrrolo[2,3-b]pyridin-5-yl)methyl)-N-(3-((3-(dimethylamino)pyrrolidin-1-yl)methyl)-5-(trifluoromethyl)phenyl)-4,5,6,7-tetrahydrothieno[2,3-c]pyridine-3-carboxamide]: the inhibition constant Ki on DDR1 [1] and at DDR2 was less than 25 nM in each case. Moreover, at DDR1 [2], the IC50 lay within 25 to 50 nM.

With `O=C(Nc1cc(C(F)(F)F)cnn1)c1csc2c1CCN(C(=O)c1cnc3ccccn13)C2` [Example 173, 6-(imidazo[1,2-a]pyridine-3-carbonyl)-N-(5-(trifluoromethyl)pyridazin-3-yl)-4,5,6,7-tetrahydrothieno[2,3-c]pyridine-3-carboxamide], the Ki at DDR1 [1] and at DDR2 was less than 25 nM throughout. The IC50 on DDR1 [2] fell in the range of 25 to 50 nM.

Take `Cc1n[nH]c2ncc(CN3CCc4c(C(=O)Nc5cc(C6CC6)nn5C)csc4C3)cc12` [Example 146, N-(3-cyclopropyl-1-methyl-1H-pyrazol-5-yl)-6-((3-methyl-1H-pyrazolo[3,4-b]pyridin-5-yl)methyl)-4,5,6,7-tetrahydrothieno[2,3-c]pyridine-3-carboxamide]: the inhibition constant Ki on DDR1 [1] and on DDR2 was less than 25 nM in each case. Besides, the IC50 at DDR1 [2] is 25 to 50 nM.

With `O=C(Nc1cc(C(F)(F)F)ccn1)c1csc2c1CCN(C(=O)c1cnc3ccccn13)C2` [Example 29, 6-(imidazo[1,2-a]pyridine-3-carbonyl)-N-(4-(trifluoromethyl)pyridin-2-yl)-4,5,6,7-tetrahydrothieno[2,3-c]pyridine-3-carboxamide], the Ki at DDR1 [1] and on DDR2 was less than 25 nM throughout. Further, the 50% inhibitory concentration (IC50) at DDR1 [2] is 50 to 80 nM.

As for `O=C(Nc1cncc(OC(F)F)c1)c1csc2c1CCN(C(=O)c1cnc3ccccn13)C2` [Example 118, N-(5-(difluoromethoxy)pyridin-3-yl)-6-(imidazo[1,2-a]pyridine-3-carbonyl)-4,5,6,7-tetrahydrothieno[2,3-c]pyridine-3-carboxamide], the Ki at DDR1 [1] and on DDR2 was less than 25 nM each time. On DDR1 [2], this compound had an IC50 of 25 to 50 nM.

For `Cn1nc(C2(C(F)(F)F)CC2)cc1NC(=O)c1csc2c1CCN(C(=O)c1cnc3ccccn13)C2` [Example 114, 6-(imidazo[1,2-a]pyridine-3-carbonyl)-N-(1-methyl-3-(1-(trifluoromethyl)cyclopropyl)-1H-pyrazol-5-yl)-4,5,6,7-tetrahydrothieno[2,3-c]pyridine-3-carboxamide], the Ki on DDR1 [1] and at DDR2 was less than 25 nM throughout. This compound returned an IC50 on DDR1 [2] of 50 to 80 nM.

Regarding `O=C(Nc1cncc(C(F)(F)F)c1)c1csc2c1CCN(C(=O)c1cnc3ccccn13)C2` [Example 28, 6-(imidazo[1,2-a]pyridine-3-carbonyl)-N-(5-(trifluoromethyl)pyridin-3-yl)-4,5,6,7-tetrahydrothieno[2,3-c]pyridine-3-carboxamide], the Ki at DDR1 [1] and on DDR2 was less than 25 nM throughout. Further, on DDR1 [2], the half-maximal inhibitory concentration (IC50) was less than 25 nM.

Take `O=C(Nc1cncc(C(F)(F)F)c1)c1csc2c1CCN(C(=O)c1cnn3ccccc13)C2` [Example 124, 6-(pyrazolo[1,5-a]pyridine-3-carbonyl)-N-(5-(trifluoromethyl)pyridin-3-yl)-4,5,6,7-tetrahydrothieno[2,3-c]pyridine-3-carboxamide]: the Ki at DDR1 [1] and at DDR2 was less than 25 nM each time. The same compound gave a concentration for half-maximal inhibition (IC50) against DDR1 [2] of less than 25 nM.

With `CN(C)Cc1ccc(NC(=O)c2csc3c2CCN(C(=O)c2cnn4ccncc24)C3)cc1C(F)(F)F` [Example 171, N-(4-((dimethylamino)methyl)-3-(trifluoromethyl)phenyl)-6-(pyrazolo[1,5-a]pyrazine-3-carbonyl)-4,5,6,7-tetrahydro thieno[2,3-c]pyridine-3-carboxamide], the Ki at DDR1 [1] and at DDR2 was less than 25 nM each time. On DDR1 [2], this compound came in with an IC50 of 50 to 80 nM.

`CC(C)(C)c1cc(NC(=O)c2csc3c2CCN(C(=O)c2cnc4ccccn24)C3)n(-c2ccccc2)n1` [Example 6, N-(3-(tert-butyl)-1-phenyl-1H-pyrazol-5-yl)-6-(imidazo[1,2-a]pyridine-3-carbonyl)-4,5,6,7-tetrahydrothieno[2,3-c]pyridine-3-carboxamide]: the Ki on DDR1 [1] and on DDR2 was less than 25 nM throughout. This compound also gave an IC50 against DDR1 [2] of 25 to 50 nM.

For `O=C(Nc1cc(F)cc(OC(F)(F)F)c1)c1csc2c1CCN(C(=O)c1cnc3ccccn13)C2` [Example 10, N-(3-fluoro-5-(trifluoromethoxy)phenyl)-6-(imidazo[1,2-a]pyridine-3-carbonyl)-4,5,6,7-tetrahydrothieno[2,3-c]pyridine-3-carboxamide], the Ki on DDR1 [1] and at DDR2 was less than 25 nM each time. The IC50 against DDR1 [2] was less than 25 nM.

On to `O=C(Nc1ccc(CO)c(C(F)(F)F)c1)c1csc2c1CCN(C(=O)c1cnc3ccccn13)C2` [Example 132, N-(4-(hydroxymethyl)-3-(trifluoromethyl)phenyl)-6-(imidazo[1,2-a]pyridine-3-carbonyl)-4,5,6,7-tetrahydrothieno[2,3-c]pyridine-3-carboxamide], for which the Ki on DDR1 [1] and at DDR2 was less than 25 nM throughout. This compound also returned a half-inhibitory concentration (IC50) against DDR1 [2] of less than 25 nM.

The Ki is the equilibrium dissociation constant of an inhibitor or competing ligand from its target. The IC50 is the point on the concentration scale where inhibition reaches its midpoint. A higher IC50 goes with weaker potency in that assay.

The values above are taken from patent US20240391936A1, “TETRAHYDROTHIENO PYRIDINE DERIVATIVES AS DDRS INHIBITORS” (CHIESI FARMACEUTICI S.P.A., priority 2021, published 2024).
